In article PMC5564531, “Evaluation of radiofluorinated carboximidamides as potential IDO-targeted PET tracers for cancer imaging” (Oncotarget, 2017):
Values belong to the compound of their own block, whether it stands above or below them.

What was measured:
[1] = tested on: Hela, PANC02, HCT116, and 4T1 cells; experiment: HeLa cell uptake of radioligands; format: cell-based
Experimental: HeLa cells were seeded in a 24 well culture plate at a density of 2 × 10^4 per well in 400 μL culture media w/ FBS (n=3). After overnight incubation (16 h), human IFN-γ (25ng/well, 50 ng/mL final concentration) in 100 μL DMEM with FBS were added into cells. The cells were rinsed with phosphate-buffered saline (PBS), 500 μL of Earle's Minimum Essential Medium (EMEM) (ATCC 30-2003), and 10 % fetal bovine serum was added to the culture wells. […] At each given time point, the cell supernatants were discarded and cells were washed 3 times with PBS (0.5 mL).

[2] = target: T1, Human IDO (Homo sapiens, UniProt P14902); experiment: IDO enzyme inhibition assay (kynurenine formation, absorbance 492 nm); format: biochemical; settings: recombinant human IDO; mean of n ≥ 3, ± SD
T1 construct: purchased Enzo Life Sciences (enzolifesciences.com) ALX-201-333-C050
T1 sequence (P14902 whole entry): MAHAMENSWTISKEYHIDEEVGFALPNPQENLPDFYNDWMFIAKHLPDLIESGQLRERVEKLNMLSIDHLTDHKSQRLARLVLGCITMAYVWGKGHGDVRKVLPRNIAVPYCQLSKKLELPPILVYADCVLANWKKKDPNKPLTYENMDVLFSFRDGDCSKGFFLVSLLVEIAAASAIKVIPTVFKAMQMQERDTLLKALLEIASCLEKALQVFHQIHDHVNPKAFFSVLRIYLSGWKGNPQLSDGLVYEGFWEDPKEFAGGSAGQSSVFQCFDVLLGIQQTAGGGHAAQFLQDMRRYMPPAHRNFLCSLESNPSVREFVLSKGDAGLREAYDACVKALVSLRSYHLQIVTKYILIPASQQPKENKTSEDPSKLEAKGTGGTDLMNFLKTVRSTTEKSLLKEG
Experimental: (§1) The percent inhibition at individual concentrations was determined and the average values of duplicates were obtained. The data was processed using nonlinear regression to generate IC50 values (Prism Graphpad).

[3] = target: T2, IDO1 in IFN-γ stimulated HeLa cells (Homo sapiens, UniProt P14902); experiment: IDO HeLa cells assay (IFN-γ induced IDO activity, kynurenine in supernatant); format: cell-based; settings: IFN-γ 50 ng/mL, 48 h incubation, read-out: Inhibition of IFN-γ induced IDO activity in HeLa cells (IC50)
T2 construct: native IDO1 in HeLa cells; endogenous in cells; host or cells: HeLa cells stimulated with human IFN-γ
T2 sequence (P14902 whole entry): as above
Experimental: as §1

[4] = tested on: IDO1; design: method as in PMID 19507862; settings: in both biochemical and cellular assays; cited from earlier work
[5] = tested on: IDO1; design: method as in PMID 20197554, PMID 20124451; settings: Phase I dose-escalation trial, generally well-tolerated doses; cited from earlier work
[6] = rapid clearance rate; species and reference not given; cited from earlier work
[7] = Lipophilicity, shake-flask method (n-octanol/PBS pH 7.4); format: physicochemical; settings: n-octanol/buffer pH 7.4, n=3
Experimental: [^18F]IDO49 (2-30 kBq in 30μL of water) was added to a two-layer system of n-octanol (500 μL) and 0.1 M phosphate buffered saline (PBS) pH 7.4 (500 μL) in an Eppendorf vial. The vessel was vortexed for 3min and then centrifuged at 10,000 rpm for 2 min. An aliquot of each layer (100 μL) was assessed for radioactivity in a wipe counter. The partition coefficient (logD7.4) was calculated as the decimal logarithm of the ratio between the counted radioactivity in the n-octanol layer and the counted radioactivity in the aqueous layer (count of n-octanol sample – count of background) / (count of PBS sample – count of background). CLogP (calculated LogP) values were determined using CHEMBIODRAW ULTRA 12.0 software (Cambridge soft. Perkin-Elmer, Waltham, MA, USA).

[8] = In vitro stability in mouse serum by radio-TLC; format: in vitro ADME; settings: 37°C, 3 h
Experimental: Two-hundred microliter samples were collected at 3 h and analyzed by radio-TLC.

[9] = tested on: Hela tumor xenografts; experiment: MicroPET imaging of HeLa tumor xenografts with rHu IFN-γ treatment; format: in vivo, mouse; settings: 60 min postinjection, IFN-γ treated HeLa tumor bearing mice, p < 0.05
Experimental: Female athymic C57BL/6 nude mice (4-6 weeks old) were ordered from Charles River Laboratories (Stone Ridge, NY, U.S.A.) and housed in a temperature and humidity controlled room. After 7 to 14 days of acclimatization, a total of 5 ×10^6 Hela cells were inoculated subcutaneously in 200 μL serum-free medium into the right flank of hind leg. Once tumors reached an appropriate size (3-4 mm in diameter) the mice were randomized into 5 groups (4/group). Then the mice in each group were randomized into two subgroups (rHu IFN- γ treatment or no rHu IFN- γ treatment). All the rHu IFN- γ treatment mice were injected i.p. of 1.5×10^5 U rHu IFN- γ /mouse/day. Group one mice were anesthetized by gas inhalation (2% vol/vol isoflurane in oxygen) 24 h later. Then the mice were euthanized and tumor tissues were dissected for further IDO1 western blotting and IHC. The same operation was repeated at 48h, 72h, 96h and 120h points.
In order to evaluate the in vivo imaging performance of [^18F]IDO49 to IDO1 tumors, microPET imaging was performed on nude mice bearing Hela tumor xenografts with and without rHu IFN- γ treatment treatment using the Inveon small-animal PET/CT scanner (Siemens). Anesthesia was induced with 4− 5% isoflurane and maintained with 1− 3% isofluorane delivered with a mixed air/oxygen through a closed nose cone throughout the PET imaging session. […]

[10] = target: IDO1 in Hela cells (Homo sapiens, UniProt P14902); experiment: Competitive cell-binding assay of [18F]IDO49 on IFN-γ treated HeLa cells; settings: inhibitors 1-10000 nM, 30 min incubation
Chain of IDO1 in Hela cells (P14902 whole entry): as above

Structure (SMILES): Cn1cc(C[C@H](N)C(=O)O)c2ccccc21 [1-L-MT, reference compound]
effect on uptake of [18F]IDO5L by HeLa at 120 min ([1]; 1000 μM 1-L-MT, n=4): strong inhibition

Structure (SMILES): NS(=O)(=O)NCCNc1nonc1C(=NO)Nc1ccc(F)c(Br)c1 [INCB024360]
inhibition of IDO1 activity [5]: greater than 90%
t1/2 (clearance rate) [6]: < 30 min

Second part, led by results:

IC50 [2]: 95.5 ± 10.4 nM
IC50 [3]: 11.9 nM
Structure (SMILES): ON=C(Nc1ccc(F)c(Cl)c1)c1nonc1NCCF [IDO49, N-(3-chloro-4-fluorophenyl)-4-((2-fluoroethyl)amino)-N'-hydroxy-1,2,5-oxadiazole-3-carboximidamide]

logD7.4 [7]: 2.13 ± 0.11
radioactivity in the intact radioligand [8]: > 95%
Structure (SMILES): Nc1nonc1/C(=N/O)Nc1ccc([18F])c(Cl)c1 [[^18F]IDO5L]
time of peak cellular uptake ([1]; Hela, PANC02, HCT116 and 4T1 cells, assayed at 30, 60, 120 mins, n=3): 60 min

logD ([7]; n-octanol/PBS, read-out: logD7.4): 1.37 ± 0.02
radioactivity in the intact radioligand [8]: > 95%
[18F]IDO49 uptake in Hela cells when co-incubated with NLG919 and INCB024360 [10]: decreased in a dose-dependent manner
Structure (SMILES): ON=C(Nc1ccc(F)c(Cl)c1)c1nonc1NCC[18F] [[^18F]IDO49]
tumor to muscle (T/M) uptake ratio, peak [9]: 2.29 ± 0.05
